Source: patent publication US4096259A, “Non-amphetaminic psychostimulating compositions of 1,4-disubstituted piperazines” (priority 1975, dated 1978)

How the values were obtained:
rat isolated duodenum = assay: In vitro papaverine spasmolytic activity: duodenum contractions in rats induced by barium chloride
Experimental: The papaverine spasmolytic activity was measured "in vitro" by the concentration ratio: active principle/papaverine hydrochloride concentration, which reduces duodenum contractions in rats, induced by barium chloride, by 50% according to the method of POMARET J. C., SERGANT - ODY M., POURRIAS B. and HUGUET G. (Therapie, 1969, 24, 109-143).
(§1) Table V below gives, by way of example, the complementary pharmacological activities such as antiserotonin, adrenolytic and atropinic activities for derivatives N° 21, 23 and 33, the spasmolytic activity of which is the greatest for the rat isolated duodenum.

[1] = Chronic toxicity in rats, oral; format: in vivo; conditions: per os, 40 mg/kg, 6 out of 7 days, six months
rabbit aorta = assay: In vitro spasmolytic action on the rabbit aorta; conditions: papaverine hydrochloride = 1
From the text: as §1

[2] = system: dog cardiovascular system; assay: Secondary action on the dog cardiovascular system, intravenous; format: in vivo; conditions: intravenous administration
paw vessels of the dog = assay: In vivo spasmolytic action on paw vessels of the dog; conditions: papaverine hydrochloride = 1
From the text: as §1

[3] = system: female rat uterus in oestrus; assay: In vitro anti-serotonin activity on the female rat uterus in oestrus; conditions: Methysergide = 1
From the text: as §1

sleep in mice = assay: Anti-sleep activity in mice; format: in vivo
rabbit isolated ear = assay: In vitro spasmolytic action on the rabbit isolated ear; conditions: papaverine hydrochloride = 1
From the text: as §1

[4] = system: ptose with reserpine in mice; assay: Ptose antagonism with reserpine in mice; format: in vivo; conditions: Mus musculus, po, per os
[5] = Acute toxicity (LD50) in mice, per os; conditions: mouse, in vivo, po
From the text: Acute toxicity was studied by determining the LD50 in mice, the derivatives being administered per os.

[6] = system: Guinea-pig seminal vesicle; assay: In vitro adrenolytic action on the Guinea-pig seminal vesicle; conditions: Yohimbine hydrochloride = 1
From the text: as §1

[7] = Group toxicity (LD50 grouped mice / LD50 isolated mice); conditions: mouse, in vivo
[8] = system: mortality with pentetrazole in mice; assay: Potentiation of mortality with pentetrazole in mice; format: in vivo; conditions: per os
[9] = system: exploration response in mice; assay: Psychostimulating activity: increase of exploration response in mice (actimetry); format: in vivo; conditions: Mus musculus, po, per os, dose which increases exploration response by 50%
From the text: The psychostimulating activity was studied by determining the dose which increases the exploration response in mice (actimetry) by 50% (ED50),according to the method described by BOISSIER J.R. and SIMON P. (Arc. Int. Pharmacolyn, 1965, 212-221158).

[10] = system: arteritis of the lower limbs, cerebral vascular sclerosis, sequelae of hemiplegia; assay: Clinical test in arteritis of the lower limbs, cerebral vascular sclerosis, sequelae of hemiplegia; format: in vivo, adults; conditions: 15 mg/day oral, one month
Experimental: By way of example, clinical tests were carried out on derivatives N° 5 and 21.

Guinea-pig ileum = assay: In vitro atropinic action on the Guinea-pig ileum; conditions: Atropine sulfate = 1
From the text: as §1

[11] = cerebral vascular sclerosis, 4 cases

## CCOC(=O)CCN1CCN(CCOC(c2ccc(F)cc2)c2ccc(F)cc2)CC1.Cl.Cl [Derivative 21, 1-(ethoxycarbonylethyl)-4[2(4,4'-difluorobenzhydryloxy)-ethyl]piperazine dihydrochloride]
Rat isolated duodenum; in vitro, rat duodenum, barium chloride, relative to papaverine hydrochloride = 1
  Spasmolytic activity (papaverine hydrochloride = 1): 8,5
Rat isolated duodenum; rat isolated duodenum
  spasmolytic activity for the rat isolated duodenum (in words): greatest
Rat isolated duodenum; tests as a whole
  spasmolytic activity of the papaverine type in the tests as a whole (in words): excellent spasmolytic activity
[1]
  tolerance in chronic toxicity study: perfectly well tolerated
Rabbit aorta
  In vitro spasmolytic action on the rabbit aorta: 5
[2]
  secondary action on the dog cardiovascular system: devoid of any secondary action
Paw vessels of the dog
  In vivo spasmolytic action on paw vessels of the dog: 30
[3]
  In vitro anti-serotonin activity on the female rat uterus in oestrus: 0,07
Sleep in mice
  Anti-sleep activity in mice: Nil
Rabbit isolated ear
  In vitro spasmolytic action on the rabbit isolated ear: 1,5
[4]
  ED50: 70 mg/kg
[5]
  LD50: 750 mg/kg
[6]
  In vitro adrenolytic action on the Guinea-pig seminal vesicle: 4
[7]
  selectivity ratio: 0.4
[8]
  Potentiation of mortality with pentetrazole in mice ED50: > 100 mg/kg
[9]
  ED50: 30 mg/kg
[10]; arteritis of the lower limbs, 8 cases
  Improvement of the psychic state: 4 times
[10]; [11]
  Improvement in intellectual activity: once
  Improvement of the psychic state: twice
[10]; hemiplegia sequelae, 2 cases
  Improvement of motor disturbances: 0
  Improvement of the psychic state: once
Guinea-pig ileum
  In vitro atropinic action on the Guinea-pig ileum: > 0,01
